The source of these data is US20260232662A1, “MIR-124 INDUCER, AND PREPARATION METHOD THEREFOR AND USE THEREOF” (NANJING SYNNOCARE PHARMACEUTICAL TECHNOLOGY CO., LTD., priority 2023, published 2026).

The AUC(0-t) is the area under the concentration-time curve up to a stated or last time point. A low value points to less exposure. Usually Cmax stands for the peak of the concentration-time curve. Usually Tmax stands for the time at which the peak concentration occurs. The half-life is the time needed for the level to fall by half in the phase considered. Low values mean fast loss, high ones slow loss.

Series [1] relates to DSS-induced IBD in mice. The series can be described thus: Preventive and therapeutic effects on DSS-induced inflammatory bowel disease (IBD) in mice. The format is in vivo. The settings on record: for preventive and therapeutic effects on DSS-induced IBD (body weight, DAI, colon length) relative to ABX464: further experiments, figures not given. From the text: This study evaluated the preventive and therapeutic effects of the compounds of the present invention on dextran sulfate sodium (DSS)-induced IBD in mice. The experiment utilized female C57BL/6 mice (purchased from Beijing Vital River Laboratory Animal Technology Co., Ltd.) to establish the DSS-induced IBD model.
Female C57BL/6 mice (6-8 weeks old) were purchased from Beijing Vital River Laboratory Animal Technology Co., Ltd. Upon arrival, the mice were housed in individually ventilated cages (IVC) under specific pathogen-free (SPF) conditions, with 2-6 mice per cage. They were provided with ad libitum access to food and water and maintained at a temperature of 20-26° C. (68-79° F.), relative humidity of 40-70%, and a 12-hour light/dark cycle (lights on from 08:00 to 20:00). After a 7-day acclimatization period, experiments were initiated.
Test compounds and ABX464 vehicle: 5% DMSO+10% Solutol HS-15+85% saline, stored at 4° C.
DSS solution: 2% (w/v) DSS in autoclaved drinking water, prepared fresh before use.
The mice were randomly allocated into eight groups according to body weight: normal control group (negative control), model group (DSS group), ABX464 treatment group, test compound groups (administered with Compounds 19, 43, 59, 84, and 89 of the present invention at 40 mg/kg, p.o., q.d.)
Following a 7-day acclimation period, the model group and compound treatment groups were administered 2% DSS aqueous solution ad libitum for 7 days starting from Day 0, followed by 3 days of normal water consumption. All groups received daily oral gavage of their respective vehicles or test compounds for 10 consecutive days beginning on the trial commencement date. During the experimental period, body weight changes in mice were monitored and recorded daily, the Disease Activity Index (DAI) was scored each day with the total score calculated on the final day, and on the last experimental day all animals were humanely euthanized followed by colon collection and length measurement.
The experimental data were expressed as mean±standard error of the mean (mean±S.E.M.). Statistical analysis was performed using GraphPad Prism or SPSS software with appropriate statistical methods. A value of P<0.05 was considered statistically significant.

Series [2] has as its system miR-124. The series can be described thus: Induction of miR-124 expression in PBMC cells (qPCR). The format is cell-based. The settings on record: Homo sapiens, 72 h, 0.1 μM compound, human PBMCs stimulated with PMA/ionomycin, miR-191 reference gene, read-out: miR-124 expression, Fold change vs DMSO. An outline of the steps: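 Human PBMCs (3.0*10^6 cells/well) were stimulated with PMA 10 ng/mL plus ionomycin 200 ng/mL for 48 h, then given compound at 0.1 μM final for 72 h. miR-124 was measured by RT-qPCR against miR-191 as reference gene. Expression is relative to DMSO control.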
Background: Real-time PCR tracks product formation cycle by cycle.

The nature of series [3]: In vivo pharmacokinetic evaluation in mice. The settings on record: mouse; male ICR mice, po, 10 mg/kg, plasma. The procedure: The compound was administered orally (p.o.) at a dose of 10 mg/kg. The test formulation was prepared at a final concentration of 0.4 mg/mL in 5% DMSO+45% PEG400+50% aqueous solution or suspension. Male ICR mice (9 per group) were sampled at three discontinuous time points (n=3 mice/time point). Approximately 80 μL of blood was collected via orbital or cardiac puncture at 5 min, 15 min, 30 min, 1 h, 2 h, 4 h, 8 h, and 24 h post-dose. All whole blood samples were collected in EDTA K2-containing tubes. After centrifugation at 4° C. (4000 rpm, 10 min), plasma was collected and stored below −40° C. for subsequent analysis. Compound concentrations in plasma were determined by liquid chromatography-tandem mass spectrometry (LC-MS/MS), and pharmacokinetic parameters were derived from the plasma concentration-time curves.

Structures are written as SMILES.

`FC(F)(F)Oc1ccc(NC2=Nc3c(Br)cccc3N3CCN=C23)cc1Cl` [Compound 84]: the “reduction in total DAI scores compared to the model group” value in series [1] (40 mg/kg p.o. q.d.) was found to be 41.59%. Also, in series [1] (40 mg/kg p.o. q.d., model group 77.32%), the “colon length as % of normal control values” amounted to 96.89%. The “body weight gain percentage” value in series [1] (day 10, 40 mg/kg p.o. q.d., female C57BL/6 mice, 2% DSS) turned out to be 0.38%. Also, the “Total Disease Activity Index (DAI) Scores” value in series [1] (final day, 40 mg/kg p.o. q.d., mean ± S.E.M., model group 14.50) stood at 8.47. Moreover, the “total DAI scores” value in series [1] (final day, 40 mg/kg p.o. q.d., model group 14.5 points) is on record as 8.47 points. The molecule also registered a Colon length in series [1] (last experimental day, 40 mg/kg p.o. q.d., mean ± S.E.M., normal control 6.44, model group 4.98) of 6.24 cm. The fold induction at 0.1 µM in series [2] stood at 15.5.
In the case of `FC(F)(F)Oc1ccc(Nc2nc3cccc(Br)c3n3ccnc23)cc1Cl` [Compound B83, 9-bromo-N-(3-chloro-4-(trifluoromethoxy)phenyl) imidazolo[1,2-a] quinoxalin-4-amine], the “preventive and therapeutic effects on DSS-induced IBD (body weight, DAI, colon length) relative to ABX464” value in series [1] is on record as “outperformed the reference drug ABX464”.
`FC(F)(F)c1ccc(NC2=Nc3cc(Cl)cc(Cl)c3N3CCN=C23)cc1` [Compound B139, 7,9-dichloro-N-(4-(trifluoromethyl)phenyl)-1,2-dihydroimidazo[1,2-a] quinoxalin-4-amine]: the fold induction at 0.1 µM in series [2] stood at 40.6. For the same molecule, in series [3], the exposure AUC(0-t) was 3260 ng·h/mL, the Cmax was 375 ng/mL, the Tmax turned out to be 2 h and the half-life was 3.36 h.
For the molecule `FC1(F)Oc2ccc(NC3=Nc4c(Cl)cccc4N4CCN=C34)cc2O1` [Compound 70], in series [2], the fold induction at 0.1 µM came to 16.4. For the same molecule, in series [3], the AUC(0-t) was found to be 1430 ng·h/mL, the Cmax was 357 ng/mL, the time to peak (Tmax) turned out to be 0.5 h and the half-life was 2.32 h.
As for `Fc1cc(Nc2nc3cc(Cl)cc(Cl)c3n3ccnc23)ccc1C(F)(F)F` [Compound B97, 7,9-dichloro-N-(3-fluoro-4-(trifluoromethyl)phenyl) imidazolo[1,2-a] quinoxalin-4-amine], the “preventive and therapeutic effects on DSS-induced IBD (body weight, DAI, colon length) relative to ABX464” value in series [1] is reported as “outperformed the reference drug ABX464”. Besides, the fold induction at 0.1 µM in series [2] stood at 26.2.
Regarding `FC(F)(F)c1ccc(NC2=Nc3c(Cl)cccc3N3CCN=C23)cc1` [Compound 68], the fold induction at 0.1 µM in series [2] worked out at 29.5. Also, in series [3], the area under the curve AUC(0-t) came to 879 ng·h/mL, the Cmax turned out to be 243 ng/mL, the Tmax came to 0.5 h and the half-life was 2.17 h.
The corresponding values for `FC(F)(F)c1ccc(Nc2nc3cccc(Cl)c3n3ccnc23)cc1Cl` [Compound B54, 9-chloro-N-(3-chloro-4-(trifluoromethyl)phenyl)imidazolo [1,2-a]quinoxalin-4-amine] are 34.1, 1330 ng·h/mL, 346 ng/mL, 0.5 h and 1.96 h.
The corresponding values for `FC(F)(F)Oc1ccc(NC2=Nc3cccc(Cl)c3N3CCN=C23)cc1` [Compound B118, 9-chloro-N-(4-(trifluoromethoxy)phenyl)-1,2-dihydroimidazo[1,2-a] quinoxalin-4-amine] are 28.8, 1880 ng·h/mL, 269 ng/mL, 2 h and 2.47 h.
For `FC(F)(F)Oc1ccc(Nc2nc3c(Cl)cccc3n3ccnc23)cc1` [Compound 2], in series [2], the fold induction at 0.1 µM is 16.5. Moreover, in series [3], the AUC(0-t) amounted to 933 ng·h/mL, the peak level (Cmax) was 207 ng/mL, the Tmax came to 4 h and the half-life is 3.45 h.
Turning to `FC(F)(F)Oc1ccc(Nc2nc3cc(Cl)ccc3n3ccnc23)cc1Cl` [Compound B108, 7-chloro-N-(3-chloro-4-(trifluoromethoxy)phenyl) imidazolo[1,2-a] quinoxalin-4-amine], the “preventive and therapeutic effects on DSS-induced IBD (body weight, DAI, colon length) relative to ABX464” value in series [1] is recorded as “outperformed the reference drug ABX464”. Moreover, the fold induction at 0.1 µM in series [2] worked out at 22.5.
On to `FC(F)(F)Oc1ccc(Nc2nc3cccc(Cl)c3n3ccnc23)cc1` [Compound B1, 9-chloro-N-(4-(trifluoromethoxy)-phenyl)imidazolo [1,2-a]quinoxalin-4-amine], for which the fold induction at 0.1 µM in series [2] was 43.8. For the same molecule, in series [3], the AUC(0-t) was 3590 ng·h/mL, the Cmax was determined as 450 ng/mL, the Tmax is 1 h and the half-life is 2.58 h.
The corresponding values for `FC(F)(F)Oc1ccc(Nc2nc3ccc(Cl)cc3n3ccnc23)cc1` [Compound B4, 8-chloro-N-(4-(trifluoromethoxy)phenyl)imidazolo [1,2-a]quinoxalin-4-amine] are 33.1, 2850 ng·h/mL, 271 ng/mL, 2 h and 3.26 h.
The corresponding values for `FC(F)(F)c1ccc(NC2=Nc3cccc(Cl)c3N3CCN=C23)cc1` [Compound B121, 9-chloro-N-(4-(trifluoromethyl)phenyl)-1,2-dihydroimidazo[1,2-a] quinoxalin-4-amine] are 29.5, 1950 ng·h/mL, 378 ng/mL, 1 h and 2.12 h.
On to `Fc1cc(NC2=Nc3c(Cl)cccc3N3CCN=C23)ccc1OC(F)(F)F` [Compound 71], for which, in series [2], the fold induction at 0.1 µM turned out to be 25.3. Also, in series [3], the AUC(0-t) is 1370 ng·h/mL, the Cmax turned out to be 274 ng/mL, the Tmax was 4 h and the half-life was 3.41 h.
For `FC(F)(F)c1ccc(NC2=Nc3c(Cl)cccc3N3CCN=C23)cc1Cl` [Compound 67], in that order: 28.8, 2030 ng·h/mL, 403 ng/mL, 4 h and 3.29 h.
The corresponding values for `Fc1cc(Nc2nc3c(Cl)cccc3n3ccnc23)ccc1OC(F)(F)F` [Compound 18] are 17.6, 1840 ng·h/mL, 365 ng/mL, 2 h and 3.78 h.
Take `FC(F)(F)Oc1ccc(Nc2nc3ccc(Br)c(Cl)c3n3ccnc23)cc1` [Compound B18, 8-bromo-9-chloro-N-(4-(trifluoromethoxy)phenyl)imidazolo [1,2-a]quinoxalin-4-amine]: the fold induction at 0.1 µM in series [2] turned out to be 22.6.
Still for that read-out and setting: the figure for `Fc1cc(Cl)cc2nc(Nc3ccc(C(F)(F)F)c(Cl)c3)c3nccn3c12` [Compound B92, 7-chloro-9-fluoro-N-(3-chloro-4-(trifluoromethyl)phenyl) imidazolo[1,2-a] quinoxalin-4-amine] is 27.1; for `Fc1cc(Nc2nc3cccc(Cl)c3n3ccnc23)ccc1OC(F)(F)F` [Compound B55, 9-chloro-N-(3-Fluoro-4-(trifluoromethoxy)phenyl)imidazolo [1,2-a]quinoxalin-4-amine] it is 36.3; for `Fc1cc(Cl)cc2c1N=C(Nc1ccc(OC(F)(F)F)cc1)C1=NCCN12` [Compound 91] it is 27.6.
For `FC(F)(F)Oc1ccc(Nc2nc3c(Cl)cc(Cl)cc3n3ccnc23)cc1Cl` [Compound 66], the fold induction at 0.1 µM in series [2] stood at 22.7.
On to `FC(F)(F)Oc1ccc(NC2=Nc3c(Cl)cccc3N3CCN=C23)cc1Cl` [Compound 72], for which the fold induction at 0.1 µM in series [2] was determined as 19.
With `Cn1c(=O)c(Nc2ccc(OC(F)(F)F)cc2)nc2c(Cl)cccc21` [Compound 1, 5-Chloro-1-methyl-3-((4-(trifluoromethoxy)phenyl)amino) quinoxalin-2(1H)-one], the fold induction at 0.1 µM in series [2] was 16.
